Legend:
Assay in all cases: relative viability (nuclei count vs DMSO), 5 days (fraction); higher = more cells survive
[1] = system: LU99A
Outline: (§1)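 Lung cancer cell lines in 1536-well plates got either a single drug or a fixed anchor-drug dose together with five library-drug doses (not always all listed) in √10 steps, by pin tool, on the day after seeding. Nuclei were counted after 5 days, and relative viability is the treated-to-vehicle ratio of nuclei counts. Values are medians of duplicate plates.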

[2] = system: NCI-H322M
Outline: as §1

[3] = system: NCI-H661
Outline: as §1

[4] = system: NCI-H1651
Outline: as §1

[5] = system: LC-2-ad
Outline: as §1

[6] = system: NCI-H2087
Outline: as §1

[7] = system: H3255
Outline: as §1

[8] = system: ChaGo-K-1
Outline: as §1

[9] = system: LXF-289
Outline: as §1

[10] = system: PC-3 [JPC-3]
Outline: as §1

[11] = system: NCI-H1944
Outline: as §1

[12] = system: NCI-H358
Outline: as §1

[13] = system: NCI-H838
Outline: as §1

[14] = system: NCI-H596
Outline: as §1

[15] = system: LK-2
Outline: as §1

[16] = system: NCI-H1666
Outline: as §1

[17] = system: LCLC-97TM1
Outline: as §1

[18] = system: HCC-78
Outline: as §1

[19] = system: BEN
Outline: as §1

[20] = system: NCI-H2342
Outline: as §1

[21] = system: UMC-11
Outline: as §1

[22] = system: HCC-15
Outline: as §1

[23] = system: NCI-H650
Outline: as §1

[24] = system: SK-MES-1
Outline: as §1

COc1cc(N2CCC(C(N)=O)CC2)ccc1Nc1nc(N)c(Cl)c(Nc2ccccc2S(=O)(=O)C(C)C)n1 [HG-5-88-01] + N=C(N)NC(=N)NCCc1ccccc1 [Phenformin] (partner 250 µM) showed a relative viability ([1]; first compound 0.04 µM) of 0.801, a relative viability ([1]; first compound 0.1265 µM) of 0.78 and a relative viability ([1]; first compound 0.4 µM) of 0.823. It also gave a relative viability ([1]; first compound 1.265 µM) of 0.921, a relative viability ([1]; first compound 4 µM) of 0.593 and a relative viability ([2]; first compound 0.04 µM) of 0.793. For the same compound, the relative viability ([2]; first compound 0.1265 µM) was 0.669, the relative viability ([2]; first compound 0.4 µM) was 0.689 and the relative viability ([2]; first compound 4 µM) was 0.704. For the same compound, the relative viability ([3]; first compound 0.04 µM) was 0.301, the relative viability ([3]; first compound 0.1265 µM) was 0.277 and the relative viability ([3]; first compound 0.4 µM) was 0.259. The relative viability ([3]; first compound 1.265 µM) was 0.24, the relative viability ([3]; first compound 4 µM) was 0.248 and the relative viability ([4]; first compound 0.04 µM) was 0.358. The relative viability ([4]; first compound 0.1265 µM) was 0.341, the relative viability ([4]; first compound 0.4 µM) was 0.367 and the relative viability ([4]; first compound 1.265 µM) was 0.348. It also gave a relative viability ([4]; first compound 4 µM) of 0.346, a relative viability ([5]; first compound 0.04 µM) of 0.717 and a relative viability ([5]; first compound 0.1265 µM) of 0.69. For the same compound, the relative viability ([5]; first compound 0.4 µM) was 0.598, the relative viability ([5]; first compound 1.265 µM) was 0.472 and the relative viability ([5]; first compound 4 µM) was 0.415. The relative viability ([6]; first compound 0.04 µM) was 0.523, the relative viability ([6]; first compound 0.1265 µM) was 0.49 and the relative viability ([6]; first compound 0.4 µM) was 0.469. It also gave a relative viability ([6]; first compound 1.265 µM) of 0.342, a relative viability ([6]; first compound 4 µM) of 0.319 and a relative viability ([7]; first compound 0.04 µM) of 0.381. The relative viability ([7]; first compound 0.1265 µM) was 0.325, the relative viability ([7]; first compound 0.4 µM) was 0.332 and the relative viability ([7]; first compound 4 µM) was 0.32. It also gave a relative viability ([8]; first compound 0.04 µM) of 0.586, a relative viability ([8]; first compound 0.1265 µM) of 0.51 and a relative viability ([8]; first compound 0.4 µM) of 0.449. It also gave a relative viability ([8]; first compound 1.265 µM) of 0.525, a relative viability ([8]; first compound 4 µM) of 0.383 and a relative viability ([9]; first compound 0.04 µM) of 0.565. For the same compound, the relative viability ([9]; first compound 0.1265 µM) was 0.589, the relative viability ([9]; first compound 0.4 µM) was 0.415 and the relative viability ([9]; first compound 1.265 µM) was 0.51. For the same compound, the relative viability ([9]; first compound 4 µM) was 0.431, the relative viability ([10]; first compound 0.04 µM) was 0.48 and the relative viability ([10]; first compound 0.1265 µM) was 0.457. The relative viability ([10]; first compound 0.4 µM) was 0.488, the relative viability ([10]; first compound 1.265 µM) was 0.461 and the relative viability ([10]; first compound 4 µM) was 0.39. For the same compound, the relative viability ([11]; first compound 0.04 µM) was 0.213, the relative viability ([11]; first compound 0.1265 µM) was 0.241 and the relative viability ([11]; first compound 0.4 µM) was 0.262. The relative viability ([11]; first compound 1.265 µM) was 0.209, the relative viability ([11]; first compound 4 µM) was 0.22 and the relative viability ([12]; first compound 0.04 µM) was 0.268. The relative viability ([12]; first compound 0.1265 µM) was 0.246, the relative viability ([12]; first compound 0.4 µM) was 0.216 and the relative viability ([12]; first compound 1.265 µM) was 0.129. The relative viability ([12]; first compound 4 µM) was 0.139, the relative viability ([13]; first compound 0.04 µM) was 0.505 and the relative viability ([13]; first compound 0.1265 µM) was 0.558. For the same compound, the relative viability ([13]; first compound 0.4 µM) was 0.411, the relative viability ([13]; first compound 1.265 µM) was 0.368 and the relative viability ([13]; first compound 4 µM) was 0.313. The relative viability ([14]; first compound 0.04 µM) was 0.657, the relative viability ([14]; first compound 0.1265 µM) was 0.807 and the relative viability ([14]; first compound 0.4 µM) was 0.612. It also gave a relative viability ([14]; first compound 1.265 µM) of 0.728, a relative viability ([14]; first compound 4 µM) of 0.379 and a relative viability ([15]; first compound 0.04 µM) of 0.516. The relative viability ([15]; first compound 0.1265 µM) was 0.394, the relative viability ([15]; first compound 0.4 µM) was 0.176 and the relative viability ([15]; first compound 1.265 µM) was 0.352. It also gave a relative viability ([15]; first compound 4 µM) of 0.198, a relative viability ([16]; first compound 0.04 µM) of 0.581 and a relative viability ([16]; first compound 0.1265 µM) of 0.57. It also gave a relative viability ([16]; first compound 0.4 µM) of 0.544, a relative viability ([16]; first compound 1.265 µM) of 0.558 and a relative viability ([16]; first compound 4 µM) of 0.459. For the same compound, the relative viability ([17]; first compound 0.04 µM) was 0.483, the relative viability ([17]; first compound 0.1265 µM) was 0.42 and the relative viability ([17]; first compound 0.4 µM) was 0.394. It also gave a relative viability ([17]; first compound 1.265 µM) of 0.357, a relative viability ([17]; first compound 4 µM) of 0.204 and a relative viability ([18]; first compound 0.04 µM) of 0.602. The relative viability ([18]; first compound 0.1265 µM) was 0.584, the relative viability ([18]; first compound 0.4 µM) was 0.447 and the relative viability ([18]; first compound 1.265 µM) was 0.306. For the same compound, the relative viability ([18]; first compound 4 µM) was 0.324, the relative viability ([19]; first compound 0.04 µM) was 0.304 and the relative viability ([19]; first compound 0.1265 µM) was 0.271. It also gave a relative viability ([19]; first compound 0.4 µM) of 0.274, a relative viability ([19]; first compound 1.265 µM) of 0.267 and a relative viability ([19]; first compound 4 µM) of 0.285. It also gave a relative viability ([20]; first compound 0.04 µM) of 0.464, a relative viability ([20]; first compound 0.1265 µM) of 0.538 and a relative viability ([20]; first compound 0.4 µM) of 0.614. For the same compound, the relative viability ([20]; first compound 1.265 µM) was 0.506, the relative viability ([20]; first compound 4 µM) was 0.6 and the relative viability ([21]; first compound 0.04 µM) was 0.336. The relative viability ([21]; first compound 0.1265 µM) was 0.419, the relative viability ([21]; first compound 1.265 µM) was 0.359 and the relative viability ([21]; first compound 4 µM) was 0.263. For the same compound, the relative viability ([22]; first compound 0.04 µM) was 0.528, the relative viability ([22]; first compound 0.1265 µM) was 0.488 and the relative viability ([22]; first compound 0.4 µM) was 0.4. For the same compound, the relative viability ([22]; first compound 1.265 µM) was 0.461, the relative viability ([22]; first compound 4 µM) was 0.231 and the relative viability ([23]; first compound 0.04 µM) was 0.429. It also gave a relative viability ([23]; first compound 0.1265 µM) of 0.492, a relative viability ([23]; first compound 0.4 µM) of 0.417 and a relative viability ([23]; first compound 1.265 µM) of 0.424. For the same compound, the relative viability ([23]; first compound 4 µM) was 0.335, the relative viability ([24]; first compound 0.04 µM) was 0.665 and the relative viability ([24]; first compound 0.1265 µM) was 0.646. For the same compound, the relative viability ([24]; first compound 0.4 µM) was 0.652, the relative viability ([24]; first compound 1.265 µM) was 0.602 and the relative viability ([24]; first compound 4 µM) was 0.643.
